Broadly, the mortality is the percentage killed. Lower therefore signals more survivors.

This passage reports mortality results from patent publication US20040142821A1, “Pesticide composition comprising malononitrile compounds” (priority 2001, published 2004).

One test relates to Cullex pipiens pallens. The test is described as follows: whole plant or invertebrate. The settings on record: 24 h.
Another test relates to Musca domestics. Kind of test: Pesticidal test against Musca domestics, treated filter paper with sucrose bait (Test Example 5). The following applies: 500 ppm test liquid (Formulation Example 5), 0.7 ml on filter paper, ten female adults, after 24 hours. The format is in vivo. The method, then: Ten female adults of Musca domestics (house fly) were set free in the polyethylene cup, which was then kept covered. After 24 hours, their survival was examined to determine the mortality.

Description for Cullex pipiens pallens: In 100 ml of ion-exchanged water, the test liquid had been prepared as described above, was added dropwise in an amount of 0.7 ml (the concentration of active ingredient was 3.5 ppm). Twenty final-instar larvae of Cullex pipiens pallens (common mosquito) were set free in the solution. After 1 days, their survival was examined to determine the mortality.

With `C=CCCC(C#N)(C#N)Cc1ccc(C#N)cc1` [Compound 6, 2-(3-butenyl)-2-(4-cyanobenzyl)malononitrile], the mortality at 3.5 µg/mL in the test with Cullex pipiens pallens was 100%. Still for that read-out and setting: as for `C=CCCCC(C#N)(C#N)Cc1ccc(C#N)cc1` [Compound 7, 2-(4-cyanobenzyl)-2-(4-pentenyl)malononitrile], the figure is 100%; as for `C=CCC(C#N)(C#N)Cc1ccc(Br)cc1` [Compound 13, 2-allyl-2-(4-bromobenzyl)malononitrile], 100%; as for `CC(C)=CCC(C#N)(C#N)Cc1ccc(Cl)cc1` [Compound 25, 2-(4-chlorobenzyl)-2-(3-methyl-2-butenyl)malononitrile], 100%.

As to `CC(C)=CCC(C#N)(C#N)Cc1ccc(OC(F)(F)F)cc1` [Compound 27, 2-(3-methyl-2-butenyl)-2-(4-(trifluoromethoxy)benzyl)malononitrile], the mortality at 3.5 µg/mL in the test with Cullex pipiens pallens is 100%.

Compound `C=CCC(C#N)(C#N)Cc1cccc(OC)c1` [Compound 28, 2-allyl-2-(3-methoxybenzyl)malononitrile] came in with a mortality at 3.5 µg/mL with Cullex pipiens pallens of 100%. `C=CCC(C#N)(C#N)Cc1ccc(OC)cc1` [Compound 29, 2-allyl-2-(4-methoxybenzyl)malononitrile] returned a mortality at 3.5 µg/mL with Cullex pipiens pallens of 100%.

Turning to `C#CCC(C#N)(C#N)C(C=C)c1ccc(OC(F)(F)F)cc1` (stereo not shown) [Compound 34, 2-(2-propynyl)-2-(1-(4-(trifluoromethoxy)phenyl)-2-propenyl)malononitrile], the mortality at 3.5 µg/mL in the test on Cullex pipiens pallens is 100%. In the test on Musca domestics, the mortality at 500 ppm stood at 100%.

In the test with Cullex pipiens pallens, `C=CCCC(C#N)(C#N)Cc1ccc(OC(F)(F)Br)cc1` [Compound 35, 2-(3-butenyl)-2-(4-(bromodifluoromethoxy)benzyl)malononitrile] returned a mortality at 3.5 µg/mL of 100%. In the test on Musca domestics, this compound registered a mortality at 500 ppm of 100%. For the compound `C=CCCC(C#N)(C#N)Cc1ccc(OCC=C)cc1` [Compound 38, 2-(3-butenyl)-2-(4-(2-propenyloxy)benzyl)malononitrile], the mortality at 3.5 µg/mL with Cullex pipiens pallens stood at 100%. Still for that read-out and setting: as for `C=CCC(C#N)(C#N)Cc1ccc(OCC)cc1` [Compound 44, 2-allyl-2-(4-ethoxybenzyl)malononitrile], the figure is 100%.

For `CC(C)CCC(C#N)(C#N)Cc1ccc(OC(F)(F)F)cc1` [Compound 45, 2-(3-methylbutyl)-2-(4-(trifluoromethoxy)benzyl)malononitrile], the mortality at 3.5 µg/mL in the test with Cullex pipiens pallens was 100%. The same compound had a mortality at 500 ppm in the test with Musca domestics of 100%. The compound `C=CCC(C#N)(C#N)C(C)(C)c1cccc(Cl)c1` [Compound 48, 2-allyl-2-(1-(3-chlorophenyl)-1-methylethyl)malononitrile] registered a mortality at 3.5 µg/mL with Cullex pipiens pallens of 100%. The same measure, in the same setting: with `C=CCC(C#N)(C#N)Cc1c(Cl)cccc1Cl` [Compound 54, 2-allyl-2-(2,6-dichlorobenzyl)malononitrile] the figure was 100%. Same read-out and setting: as for `C=CCC(C#N)(C#N)Cc1ccc(S(C)(=O)=O)cc1` [Compound 61, 2-allyl-2-(4-(methylsulfonyl)benzyl)malononitrile], the figure is 100%. Same read-out and setting: with `C=CCC(C#N)(C#N)Cc1ccc(C(F)(F)F)cc1[N+](=O)[O-]` [Compound 63, 2-allyl-2-(2-nitro-4-(trifluoromethyl)benzyl)malononitrile] the figure was 100%.

Regarding `C=CCCC(C#N)(C#N)Cc1c(Cl)cc(C(F)(F)F)cc1Cl` [Compound 65, 2-(3-butenyl)-2-(2,6-dichloro-4-(trifluoromethyl)benzyl)malononitrile], the mortality at 3.5 µg/mL with Cullex pipiens pallens came out at 100%. This compound also came in with a mortality at 500 ppm in the test on Musca domestics of 100%. `C=CCCC(C#N)(C#N)Cc1ccc(C(F)(F)F)cc1[N+](=O)[O-]` [Compound 67, 2-(3-butenyl)-2-(2-nitro-4-(trifluoromethyl)benzyl)malononitrile] returned a mortality at 3.5 µg/mL in the test with Cullex pipiens pallens of 100%. The compound further yielded a mortality at 500 ppm in the test on Musca domestics of 100%.

With `C=CCC(C#N)(C#N)Cc1ccc(SC)cc1` [Compound 70, 2-allyl-2-(4-(methylthio)benzyl)malononitrile], in the test with Cullex pipiens pallens, the mortality at 3.5 µg/mL turned out to be 100%.

For the compound `CCCC(C#N)(C#N)Cc1ccc(C(F)(F)F)cc1` [Compound 71, 2-propyl-2-(4-(trifluoromethyl)benzyl)malononitrile], the mortality at 3.5 µg/mL in the test with Cullex pipiens pallens turned out to be 100%. In the test with Musca domestics, the mortality at 500 ppm worked out at 100%. In turn, `CCC(C#N)(C#N)Cc1ccc(C(F)(F)F)cc1` [Compound 75, 2-ethyl-2-(4-(trifluoromethyl)benzyl)malononitrile] displayed a mortality at 3.5 µg/mL in the test on Cullex pipiens pallens of 100%. This compound also showed a mortality at 500 ppm in the test with Musca domestics of 100%.

For `C=CCCC(C#N)(C#N)Cc1ccc(OC(C)=O)cc1` [Compound 78, 2-(3-butenyl)-2-(4-(acetyloxy)benzyl)malononitrile], the mortality at 3.5 µg/mL in the test with Cullex pipiens pallens came to 100%. Still for that read-out and setting: with `C=CCCC(C#N)(C#N)Cc1ccc(OC(F)(F)C(F)F)cc1` [Compound 80, 2-(3-butenyl)-2-(4-(1,1,2,2-tetrafluoroethoxy)benzyl)malononitrile] the figure was 100%; with `C=CCCC(C#N)(C#N)Cc1ccc(OCC(F)(F)F)cc1` [Compound 81, 2-(3-butenyl)-2-(4-(2,2,2-trifluoroethoxy)benzyl)malononitrile], 100%. In the case of `C=CCC(C#N)(C#N)C(OCC)c1ccc(OC(F)(F)F)cc1` (stereo not drawn) [Compound 82, 2-allyl-2-(4-(trifluoromethoxy)-α-ethoxybenzyl)malononitrile], the mortality at 3.5 µg/mL in the test with Cullex pipiens pallens turned out to be 100%. In the test on Musca domestics, this compound had a mortality at 500 ppm of 100%. `C=CCC(C#N)(C#N)C(OC)c1ccc(C#N)cc1` (stereo not drawn) [Compound 83, 2-allyl-2-(4-cyano-α-methoxybenzyl)malononitrile] displayed a mortality at 3.5 µg/mL in the test on Cullex pipiens pallens of 100%. In turn, `C=CCCC(C#N)(C#N)Cc1cccc(OC(F)(F)F)c1` [Compound 90, 2-(3-butenyl)-2-(3-(trifluoromethoxy)benzyl)malononitrile] registered a mortality at 500 ppm in the test with Musca domestics of 100%.

As for `C=CCC(C#N)(C#N)C(C#N)c1ccc(OC)cc1` (stereo not drawn) [Compound 91, 2-allyl-2-(4-methoxy-α-cyanobenzyl)malononitrile], the mortality at 3.5 µg/mL in the test on Cullex pipiens pallens was found to be 100%.

The compound `C=CCC(C#N)(C#N)C(C#N)c1ccc(C)cc1` (stereo not drawn) [Compound 92, 2-allyl-2-(4-methyl-α-cyanobenzyl)malononitrile] yielded a mortality at 3.5 µg/mL in the test on Cullex pipiens pallens of 100%. In the test with Musca domestics, this compound had a mortality at 500 ppm of 100%.

`C=CCC(C#N)(C#N)Cc1ccc(C(C)=O)cc1` [Compound 97, 2-(4-acetylbenzyl)-2-allylmalononitrile] yielded a mortality at 3.5 µg/mL with Cullex pipiens pallens of 100%.

In the case of `C=CCCC(C#N)(C#N)Cc1ccc(OCC)cc1` [Compound 98, 2-(3-butenyl)-2-(4-ethoxybenzyl)malononitrile], the mortality at 3.5 µg/mL with Cullex pipiens pallens worked out at 100%.

The compound `C=CCCC(C#N)(C#N)Cc1ccc(OCCC)cc1` [Compound 99, 2-(3-butenyl)-2-(4-propoxybenzyl)malononitrile] yielded a mortality at 3.5 µg/mL with Cullex pipiens pallens of 100%. On the same count and under the same terms, as for `C=CCCC(C#N)(C#N)Cc1ccc(OC(C)C)cc1` [Compound 100, 2-(3-butenyl)-2-(4-isopropoxybenzyl)malononitrile], the figure is 100%.

Regarding `C=CCC(C#N)(C#N)Cc1ccc(CC)cc1` [Compound 101, 2-allyl-2-(4-ethylbenzyl)malononitrile], in the test with Cullex pipiens pallens, the mortality at 3.5 µg/mL was 100%. The compound also came in with a mortality at 500 ppm with Musca domestics of 100%.

On to `C=CCC(C#N)(C#N)C(c1ccc(OC(F)(F)F)cc1)C(C)(C)C` (stereo not shown) [Compound 103, 2-allyl-2-(1-(4-(trifluoromethoxy)phenyl)-2,2-dimethylpropyl)malononitrile], for which, in the test with Cullex pipiens pallens, the mortality at 3.5 µg/mL is 100%. For `CCCCCC(C#N)(C#N)Cc1ccc(C(F)(F)F)cc1` [Compound 104, 2-pentyl-2-(4-(trifluoromethyl)benzyl)malononitrile], the mortality at 3.5 µg/mL with Cullex pipiens pallens is 100%. The compound `CC(C)CCC(C#N)(C#N)Cc1ccc(C(F)(F)F)cc1` [Compound 105, 2-(3-methylbutyl)-2-(4-(trifluoromethyl)benzyl)malononitrile] had a mortality at 3.5 µg/mL with Cullex pipiens pallens of 100%. This compound also had a mortality at 500 ppm in the test with Musca domestics of 100%. With `CC(C)=CCC(C#N)(C#N)Cc1ccc(C(F)(F)F)cc1` [Compound 106, 2-(3-methyl-2-butenyl)-2-(4-(trifluoromethyl)benzyl)malononitrile], the mortality at 3.5 µg/mL in the test on Cullex pipiens pallens is 100%. With `CC=CCC(C#N)(C#N)Cc1ccc(C(F)(F)F)cc1` [Compound 107, 2-(2-butenyl)-2-(4-(trifluoromethyl)benzyl)malononitrile], the mortality at 3.5 µg/mL with Cullex pipiens pallens was 100%. Besides, the mortality at 500 ppm in the test on Musca domestics is 100%. `C=C(C)CC(C#N)(C#N)Cc1ccc(C(F)(F)F)cc1` [Compound 108, 2-(2-methyl-2-propenyl)-2-(4-(trifluoromethyl)benzyl)malononitrile]: the mortality at 3.5 µg/mL in the test with Cullex pipiens pallens was determined as 100%. The compound further gave a mortality at 500 ppm in the test with Musca domestics of 100%.

For `CCC(C)C(C#N)(C#N)Cc1ccc(C(F)(F)F)cc1` (stereo not shown) [Compound 111, 2-(1-methylpropyl)-2-(4-(trifluoromethyl)benzyl)malononitrile], the mortality at 3.5 µg/mL in the test with Cullex pipiens pallens was determined as 100%. The mortality at 500 ppm with Musca domestics worked out at 100%. Consider `CCCC(C)C(C#N)(C#N)Cc1ccc(C(F)(F)F)cc1` (stereo not shown) [Compound 112, 2-(1-methylbutyl)-2-(4-(trifluoromethyl)benzyl)malononitrile], for which the mortality at 3.5 µg/mL in the test on Cullex pipiens pallens worked out at 100%. On the same count and under the same terms, with `CCCCC(C)C(C#N)(C#N)Cc1ccc(C(F)(F)F)cc1` (stereo not shown) [Compound 113, 2-(1-methylpentyl)-2-(4-(trifluoromethyl)benzyl)malononitrile] the figure was 100%.

As to `C=CCC(C#N)(C#N)Cc1ccc(OC(C)CC)cc1` (stereo not shown) [Compound 115, 2-allyl-2-(4-(2-butyloxy)benzyl)malononitrile], in the test with Cullex pipiens pallens, the mortality at 3.5 µg/mL was found to be 100%. The compound further returned a mortality at 500 ppm with Musca domestics of 100%. `C=CCC(C#N)(C#N)Cc1ccc(F)c(Oc2ccccc2)c1` [Compound 116, 2-allyl-2-(4-fluoro-3-phenoxybenzyl)malononitrile] returned a mortality at 3.5 µg/mL in the test with Cullex pipiens pallens of 100%. In the test on Cullex pipiens pallens, `C=CCC(C#N)(C#N)Cc1cccc(Oc2ccccc2)c1` [Compound 118, 2-allyl-2-(3-phenoxybenzyl)malononitrile] had a mortality at 3.5 µg/mL of 100%.
